Test results from paper PMC4366150, “Inhibiting EGFR Dimerization Using Triazolyl-Bridged Dimerization Arm Mimics” (PLoS ONE, 2015).
Positions of bridges follow the written chain, without caps; N, C: chain ends. Non-standard residues stand in square brackets, D forms with d. Residues, ends and D or L forms follow the SMILES beside them. Triazole bridges read from a SMILES are 1,4-linked. *: point of attachment. 5FAM = O=C1OC2(c3ccc(O)cc3Oc3cc(O)ccc32)c2ccc(C(=O)*)cc21; Aha = [N-]=[N+]=NCC[C@H](N)C(=O)O; Nle = CCCC[C@H](N)C(=O)O; Pra = C#CC[C@H](N)C(=O)O; βAla = NCCC(=O)O

Columns and labels:
Format in all cases: cell-based
total EGFR = molecular target: T1, total EGFR (Homo sapiens, UniProt P00533); assay: Total EGFR protein levels in MDA-MB-231 cells, western blot; details: peptide 30 min, 50 ng/mL EGF 5 min, western blot normalized to tubulin, average of two experiments
T1 construct: EGFR autophosphorylation on Tyr1068 in intact MDA-MB-231 cells; endogenous in cells; host or cells: MDA-MB-231 (ATCC)
Experimental: (§1) The EDA peptides were first tested to see if they could downregulate EGFR activation. Receptor activation was monitored as a function of EGFR autophosphorylation on Tyr1068 in intact MDA-MB-231 cells (Fig. 5a and b and S3 Fig.). The receptor was stimulated with EGF for 5 min following a 30 min peptide pretreatment.
While EDA2 downregulates receptor phosphorylation, we also wanted to investigate whether EGFR dimerization itself was inhibited. As a strategy to measure the number of detectable EGFR dimers in intact cells, a quantitative Proximity Ligation Assay (PLA) was performed (Fig. 6). Cells were stimulated with EGF in the presence or absence of EDA2 or its scramble control (EDA2-Scr). […] Fluorescence microscopy was used to visualize the DAPI and PLA signals.
Proteins were separated by 8% SDS-PAGE then transferred onto PVDF membrane. […] Bands were visualized by chemiluminescence and quantified using Licor Image Studio Lite. […] Significance values were calculated using two-way ANOVA with Bonferonni multiple-comparison test. […] Significance values were calculated using one-way ANOVA with Bonferonni multiple-comparison test.
Supplementary file pone.0118796.s004.tif: S4 Fig The effect of EDA2 and its controls on total EGFR protein levels in the cell. […] Cells were immediately lysed and total EGFR levels were analyzed by western blotting. […]

EGFR p-Tyr1068 = assay: EGFR phosphorylation (Tyr1068) in MDA-MB-231 cells, western blot; details: 30 min pretreatment, 50 ng/mL EGF 5 min
Experimental: as §1
Fig 5 EDA2 down-regulates activated EGFR and reduces cell viability. (a) Cells were stimulated with 50 ng/mL EGF for 5 min in the presence or absence of EDA peptides, followed by western blotting. An apparent decrease in phosphorylated EGFR was observed when treated with EDA2. Vertical lines indicate non-adjacent samples from the same western blot. […] Data is plotted as the average of at least three experiments, where error bars represent SEM. * p < 0.05, ** p < 0.01 relative to the EGF-stimulated control. […] (c) A panel of cell lines was dosed daily with EDA2 or gefitinib for 5 days, and viability was quantified using the Cell Titer Blue assay. […]
Proteins were separated by 8% SDS-PAGE then transferred onto PVDF membrane. […] Bands were visualized by chemiluminescence and quantified using Licor Image Studio Lite. […] Significance values were calculated using two-way ANOVA with Bonferonni multiple-comparison test. […] Significance values were calculated using one-way ANOVA with Bonferonni multiple-comparison test. […]

MDA-MB-231 cells = assay: Cell viability, Cell Titer Blue, MDA-MB-231; details: 6.25 μM, dosed daily for 5 days, average of quadruplicates
Experimental: (§2) Fig 5 EDA2 down-regulates activated EGFR and reduces cell viability. (a) Cells were stimulated with 50 ng/mL EGF for 5 min in the presence or absence of EDA peptides, followed by western blotting. An apparent decrease in phosphorylated EGFR was observed when treated with EDA2. Vertical lines indicate non-adjacent samples from the same western blot. […] Data is plotted as the average of at least three experiments, where error bars represent SEM. * p < 0.05, ** p < 0.01 relative to the EGF-stimulated control. All remaining means are not significant (p > 0.05) relative to the EGF-stimulated control. (c) A panel of cell lines was dosed daily with EDA2 or gefitinib for 5 days, and viability was quantified using the Cell Titer Blue assay. […]
(§3) Since EDA2 appeared to downregulate EGFR phosphorylation, we sought to determine whether this activity could also lead to a decrease in cell viability (Fig. 5c). Three diverse, EGFR-expressing cell lines (MDA-MB-231, PC-3, and BxPC-3) were dosed daily with EDA2 over a 0–50 μM concentration range over a five-day time course, after which cell viability was quantified using the Cell Titer Blue assay. […]
(§4) MDA-MB-231, PC-3, or Bx-PC3 cells were seeded at 7,500 cells/well in a 96 well plate and allowed to adhere in RPMI-1640 containing 1% FBS. […] Fluorescence was quantified using 530 nm excitation and 590 nm emission filters. […]

BxPC-3 cells = assay: Cell viability, Cell Titer Blue, BxPC-3; details: 6.25 μM, dosed daily for 5 days, average of quadruplicates
Experimental: as §2, §3, §4

PC-3 cells = assay: Cell viability, Cell Titer Blue, PC-3; details: 6.25 μM, dosed daily for 5 days, average of quadruplicates
Experimental: as §2, §3, §4

effect on EGFR expression (total EGFR) (in words) (total EGFR) | Structure (SMILES) | reduction of EGFR phosphorylation (Tyr1068) compared to untreated cells (EGFR p-Tyr1068; 5 μM peptide, normalized to tubulin, average of at least three experiments) | reduction of cell viability (MDA-MB-231 cells) [%] | reduction of cell viability (BxPC-3 cells) [%] | reduction of cell viability (PC-3 cells) [%] | effect on EGFR phosphorylation (Tyr1068) (in words) (EGFR p-Tyr1068; 0.05, 0.5 or 5 μM peptide, western blot)
no effect | CCCC[C@@H]1NC(=O)[C@H](CCC(N)=O)NC(=O)[C@H](Cc2ccc(O)cc2)NC(=O)[C@H]([C@@H](C)O)NC(=O)[C@H]([C@@H](C)O)NC(=O)[C@@H]2CCCN2C(=O)[C@H](CC(N)=O)NC(=O)[C@H](Cc2ccc(O)cc2)NC(=O)[C@@H](NC(=O)c2ccc3c(c2)C(=O)OC32c3ccc(O)cc3Oc3cc(O)ccc32)Cc2cn(nn2)CC[C@@H](C(N)=O)NC1=O [EDA2] (5FAM-[Pra]YNPTTYQ[Nle][Aha]-NH2; triazole 1-10) | greater than 60% | 50 | 34 | 72 | –
– | CCCC[C@H](NC(=O)[C@H](CCC(N)=O)NC(=O)[C@H](Cc1ccc(O)cc1)NC(=O)[C@@H](NC(=O)[C@@H](NC(=O)[C@@H]1CCCN1C(=O)[C@H](CC(N)=O)NC(=O)[C@H](Cc1ccc(O)cc1)NC(=O)[C@H](C)NC(=O)CCNC(=O)c1ccc2c(c1)C(=O)OC21c2ccc(O)cc2Oc2cc(O)ccc21)[C@@H](C)O)[C@@H](C)O)C(=O)N[C@@H](C)C(N)=O [non-modified control, reference compound] ({5FAM-βAla}-AYNPTTYQ[Nle]A-NH2) | – | – | – | – | no inhibitory effect
